{
  "source": "ChEMBL document CHEMBL4251600",
  "about": "“Bioactive products from singlet oxygen photooxygenation of cannabinoids” (Eur J Med Chem, 2018)",
  "key": {"[1]": {"test_system": "Plasmodium falciparum", "test": "Antiplasmodial activity against chloroquine-resistant Plasmodium falciparum W2 infected in red blood cells incubated for 72 hrs by parasite LDH release based colorimetric assay", "type": "functional, organism-based", "details": "W2, 72 h"}, "[2]": {"target": "Cannabinoid receptor 1 (Homo sapiens, UniProt P21554)", "sequence (P21554 whole entry)": "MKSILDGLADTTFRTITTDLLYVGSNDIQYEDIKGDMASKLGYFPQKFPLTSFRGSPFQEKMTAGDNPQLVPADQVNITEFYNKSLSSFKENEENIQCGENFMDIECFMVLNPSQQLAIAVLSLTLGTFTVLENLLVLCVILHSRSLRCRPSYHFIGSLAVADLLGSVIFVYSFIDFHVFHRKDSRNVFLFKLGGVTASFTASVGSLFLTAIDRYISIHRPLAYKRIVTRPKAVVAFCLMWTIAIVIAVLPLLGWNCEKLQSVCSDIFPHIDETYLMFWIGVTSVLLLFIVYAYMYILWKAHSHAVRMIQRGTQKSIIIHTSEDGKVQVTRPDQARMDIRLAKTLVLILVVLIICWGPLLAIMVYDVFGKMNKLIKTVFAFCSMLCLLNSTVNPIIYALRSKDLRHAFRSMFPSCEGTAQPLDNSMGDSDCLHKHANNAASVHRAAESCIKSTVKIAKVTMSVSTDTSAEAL", "test": "Displacement of [3H]CP-55,940 from recombinant human full length CB1 receptor expressed in HEK293 cell membranes after 90 mins by topcount method"}, "[3]": {"test_system": "Plasmodium falciparum", "test": "Antiplasmodial activity against chloroquine-sensitive Plasmodium falciparum D6 infected in red blood cells incubated for 72 hrs by parasite LDH release based colorimetric assay", "type": "functional, organism-based", "details": "D6, 72 h"}, "[4]": {"target": "Cannabinoid receptor 2 (Homo sapiens, UniProt P34972)", "sequence (P34972 whole entry)": "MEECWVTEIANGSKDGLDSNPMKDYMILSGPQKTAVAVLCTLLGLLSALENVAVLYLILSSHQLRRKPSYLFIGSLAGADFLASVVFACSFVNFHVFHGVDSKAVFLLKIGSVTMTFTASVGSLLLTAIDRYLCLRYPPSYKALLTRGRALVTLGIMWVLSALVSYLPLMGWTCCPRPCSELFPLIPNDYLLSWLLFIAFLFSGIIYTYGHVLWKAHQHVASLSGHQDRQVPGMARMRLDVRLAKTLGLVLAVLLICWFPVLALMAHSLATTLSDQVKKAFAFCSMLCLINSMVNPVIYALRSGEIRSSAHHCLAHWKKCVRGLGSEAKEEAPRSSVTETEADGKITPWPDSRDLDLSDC", "test": "Displacement of [3H]CP-55,940 from recombinant human full length CB2 receptor expressed in HEK293 cell membranes after 90 mins by topcount method"}, "[5]": {"test_system": "Nakaseomyces glabratus", "test": "Antifungal activity against Candida glabrata by modified CLSI based method", "type": "functional, organism-based"}, "[6]": {"test_system": "Staphylococcus aureus", "test": "Antimicrobial activity against methicillin-resistant Staphylococcus aureus by modified CLSI based method", "type": "functional, organism-based"}, "[7]": {"test_system": "SK-MEL", "test": "Anticancer activity against human SK-MEL cells assessed as cell growth inhibition incubated for 48 hrs by neutral red dye based assay", "type": "functional"}, "[8]": {"test_system": "LLC-PK1", "test": "Cytotoxicity against pig LLC-PK1 cells assessed as cell growth inhibition incubated for 48 hrs by neutral red dye based assay", "set-up": "species or system Sus scrofa", "details": "Sus scrofa, LLC-PK1, 48 h; read-out: IC50"}, "[9]": {"test_system": "Pichia kudriavzevii", "test": "Antifungal activity against Candida krusei by modified CLSI based method", "type": "functional, organism-based"}, "[10]": {"test_system": "Cryptococcus neoformans", "test": "Antifungal activity against Cryptococcus neoformans by alamar blue assay", "type": "functional, organism-based", "details": "for IC50: read-out: IC50"}, "[11]": {"test_system": "SK-OV-3", "test": "Anticancer activity against human SKOV3 cells assessed as cell growth inhibition up to 10 ug/ml incubated for 48 hrs by neutral red dye based assay", "type": "functional"}, "[12]": {"test_system": "Staphylococcus aureus", "test": "Antimicrobial activity against Staphylococcus aureus by modified CLSI based method", "type": "functional, organism-based", "details": "for IC50: read-out: IC50"}, "[13]": {"test_system": "KB", "test": "Anticancer activity against human KB cells assessed as cell growth inhibition up to 10 ug/ml incubated for 48 hrs by neutral red dye based assay", "type": "functional"}, "[14]": {"test_system": "BT-549", "test": "Anticancer activity against human BT549 cells assessed as cell growth inhibition incubated for 48 hrs by neutral red dye based assay", "type": "functional", "details": "BT-549, 48 h"}, "[15]": {"test_system": "Leishmania donovani", "test": "Antileishmanial activity against Leishmania donovani promastigotes incubated for 48 hrs by alamar blue assay", "type": "functional, organism-based", "details": "Leishmania donovani, 48 h; for IC50: read-out: IC50; for IC90: read-out: IC90"}, "[16]": {"details": "Cryptococcus neoformans, read-out: MIC"}, "[17]": {"details": "Staphylococcus aureus, read-out: IC50"}},
  "note": "Calls of active or inactive are those of the source. The rule behind the calls is not given here.",
  "data": [
    {"smiles": "CCCCCc1cc(O)c2c(c1)OC(C)(C)C1=C2C(OC(C)=O)C(C)(OC)CC1", "note": "(configuration not stated)", "values": [
      {"measurement": "IC50", "setting": "[1]", "result": 3, "unit": "µg/mL"},
      {"measurement": "IC50", "setting": "[2]", "result": 2800, "unit": "nM"},
      {"measurement": "Ki", "setting": "[2]", "result": 1400, "unit": "nM"},
      {"measurement": "IC50", "setting": "[3]", "result": 3.3, "unit": "µg/mL"},
      {"measurement": "IC50", "setting": "[4]", "result": 1980, "unit": "nM"},
      {"measurement": "Ki", "setting": "[4]", "result": 990, "unit": "nM"}
    ]},
    {"smiles": "CCCCCc1cc(OC(C)=O)c2c(c1)OC(C)(C)C1=C2C2OC2(C)CC1", "note": "(configuration not stated)", "values": [
      {"measurement": "IC50", "setting": "[2]", "result": 573, "unit": "nM"},
      {"measurement": "Ki", "setting": "[2]", "result": 286, "unit": "nM"},
      {"measurement": "IC50", "setting": "[4]", "result": 927, "unit": "nM"},
      {"measurement": "Ki", "setting": "[4]", "result": 464, "unit": "nM"}
    ]},
    {"smiles": "CCCCCC1=CC(=O)C2=C(OC(C)(C)c3ccc(C)cc32)C1=O", "values": [
      {"measurement": "IC50", "setting": "[5]", "result": "Not Active"},
      {"measurement": "MIC", "setting": "[5]", "result": "inactive"},
      {"measurement": "IC50", "setting": "[6]", "result": "Not Active"},
      {"measurement": "MIC", "setting": "[6]", "result": "inactive"},
      {"measurement": "IC50", "setting": "[7]", "result": 7.6, "unit": "µg/mL"},
      {"measurement": "IC50", "setting": "[8]", "result": 5.65, "unit": "µg/mL"},
      {"measurement": "IC50", "setting": "[9]", "result": "Not Active"},
      {"measurement": "MIC", "setting": "[9]", "result": "inactive"},
      {"measurement": "IC50", "setting": "[10]; Cryptococcus neoformans", "result": 4.44, "unit": "µg/mL"},
      {"measurement": "MIC", "setting": "[10]; [16]", "result": 20, "unit": "µg/mL"},
      {"measurement": "IC50", "setting": "[11]", "result": "Not Active"},
      {"measurement": "MIC", "setting": "[12]", "result": "inactive"},
      {"measurement": "IC50", "setting": "[12]; Staphylococcus aureus", "result": "> 20", "unit": "µg/mL"},
      {"measurement": "IC50", "setting": "[13]", "result": "Not Active"},
      {"measurement": "IC50", "setting": "[14]", "result": 6.05, "unit": "µg/mL"}
    ]},
    {"smiles": "CCCCCc1cc2c(c(OS(=O)(=O)c3ccc(C)cc3)c1)[C@@H]1[C@H](O)C(C)=CC[C@H]1C(C)(C)O2", "values": [
      {"measurement": "IC50", "setting": "[2]", "result": 1280, "unit": "nM"},
      {"measurement": "Ki", "setting": "[2]", "result": 642, "unit": "nM"},
      {"measurement": "IC50", "setting": "[4]", "result": 1110, "unit": "nM"},
      {"measurement": "Ki", "setting": "[4]", "result": 552, "unit": "nM"}
    ]},
    {"smiles": "C=C1C[C@H]2C3=C(OC(C)(C)[C@@H]2C[C@H]1O)C(=O)C(CCCCC)=CC3=O", "values": [
      {"measurement": "IC50", "setting": "[5]", "result": "Not Active"},
      {"measurement": "MIC", "setting": "[5]", "result": "inactive"},
      {"measurement": "MIC", "setting": "[6]; Staphylococcus aureus", "result": 10, "unit": "µg/mL"},
      {"measurement": "IC50", "setting": "[6]; [17]", "result": 5.53, "unit": "µg/mL"},
      {"measurement": "IC50", "setting": "[15]", "result": 0.6, "unit": "µg/mL"},
      {"measurement": "IC90", "setting": "[15]", "result": 1.3, "unit": "µg/mL"},
      {"measurement": "IC50", "setting": "[9]", "result": "Not Active"},
      {"measurement": "MIC", "setting": "[9]", "result": "inactive"},
      {"measurement": "IC50", "setting": "[10]; Cryptococcus neoformans", "result": 1.84, "unit": "µg/mL"},
      {"measurement": "MIC", "setting": "[10]; [16]", "result": 5, "unit": "µg/mL"},
      {"measurement": "IC50", "setting": "[12]; Staphylococcus aureus", "result": 2.03, "unit": "µg/mL"},
      {"measurement": "MIC", "setting": "[12]; Staphylococcus aureus, read-out: MIC", "result": 2.5, "unit": "µg/mL"}
    ]},
    {"smiles": "C=C1CC[C@@H]2[C@H](c3c(cc(CCCCC)cc3OS(=O)(=O)c3ccc(C)cc3)OC2(C)C)[C@@H]1OO", "values": [
      {"measurement": "IC50", "setting": "[15]", "result": 3.1, "unit": "µg/mL"},
      {"measurement": "IC90", "setting": "[15]", "result": 6.5, "unit": "µg/mL"}
    ]},
    {"smiles": "CCCCCc1cc2c(c(OS(=O)(=O)c3ccc(C)cc3)c1)[C@H]1[C@@H](CC=C(C)[C@@H]1O)C(C)(C)O2", "values": [
      {"measurement": "MIC", "setting": "[5]", "result": "inactive"},
      {"measurement": "MIC", "setting": "[6]", "result": "inactive"},
      {"measurement": "MIC", "setting": "[9]", "result": "inactive"},
      {"measurement": "MIC", "setting": "[10]", "result": "inactive"},
      {"measurement": "MIC", "setting": "[12]", "result": "inactive"}
    ]},
    {"smiles": "CCCCCc1cc(O)c2c(c1)OC(C)(C)C1=C2C(OCC)C(C)(O)CC1", "note": "(configuration not stated)", "values": [
      {"measurement": "IC50", "setting": "[1]", "result": 3.7, "unit": "µg/mL"},
      {"measurement": "IC50", "setting": "[5]", "result": "Not Active"},
      {"measurement": "MIC", "setting": "[5]", "result": "inactive"},
      {"measurement": "MIC", "setting": "[6]", "result": "inactive"},
      {"measurement": "IC50", "setting": "[6]; [17]", "result": 17.1, "unit": "µg/mL"},
      {"measurement": "IC50", "setting": "[15]", "result": 3, "unit": "µg/mL"},
      {"measurement": "IC90", "setting": "[15]", "result": 6, "unit": "µg/mL"},
      {"measurement": "IC50", "setting": "[3]", "result": 3.6, "unit": "µg/mL"},
      {"measurement": "IC50", "setting": "[9]", "result": "Not Active"},
      {"measurement": "MIC", "setting": "[9]", "result": "inactive"},
      {"measurement": "MIC", "setting": "[10]", "result": "inactive"},
      {"measurement": "IC50", "setting": "[10]; Cryptococcus neoformans", "result": 4.57, "unit": "µg/mL"},
      {"measurement": "MIC", "setting": "[12]", "result": "inactive"},
      {"measurement": "IC50", "setting": "[12]; Staphylococcus aureus", "result": 4.86, "unit": "µg/mL"}
    ]},
    {"smiles": "C=C1C[C@H]2c3c(cc(CCCCC)cc3OS(=O)(=O)c3ccc(C)cc3)OC(C)(C)[C@@H]2CC1OO", "note": "(some centres not stated)", "values": [
      {"measurement": "IC50", "setting": "[2]", "result": 5700, "unit": "nM"},
      {"measurement": "Ki", "setting": "[2]", "result": 2850, "unit": "nM"},
      {"measurement": "IC50", "setting": "[4]", "result": 2060, "unit": "nM"},
      {"measurement": "Ki", "setting": "[4]", "result": 1030, "unit": "nM"}
    ]},
    {"smiles": "C[C@@H]1CC[C@H]2[C@@H](C)C(=O)O[C@@H]3O[C@@]4(C)CC[C@@H]1[C@]32OO4", "note": "[ARTEMISININ]", "values": [
      {"measurement": "IC50", "setting": "[1]", "result": 0.014, "unit": "µg/mL"}
    ]},
    {"smiles": "CCCCCc1cc(OC(C)=O)c2c(c1)OC(C)(C)C1=C2C(O)C(C)(O)CC1", "note": "(configuration not stated)", "values": [
      {"measurement": "IC50", "setting": "[1]", "result": 3.2, "unit": "µg/mL"},
      {"measurement": "IC50", "setting": "[3]", "result": 4.5, "unit": "µg/mL"}
    ]},
    {"smiles": "C=C1C[C@H]2C3=C(OC(C)(C)[C@@H]2CC1OO)C(=O)C(CCCCC)=CC3=O", "note": "(stereo in doubt; 26)", "values": [
      {"measurement": "MIC", "setting": "[5]", "result": "inactive"},
      {"measurement": "MIC", "setting": "[6]", "result": "inactive"},
      {"measurement": "MIC", "setting": "[9]", "result": "inactive"}
    ]}
  ]
}
